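How tested: cells in 96-well plates exposed to compound for 48 hours at five concentrations. At the GI50, growth is halved.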 The source made the active and inactive calls. Rule as the data show it: active = GI50 up to about 1.1 µM and inactive = higher.
Experiments:
Assay in all cases: NCI anticancer screen, dose series, 48 h
SR = system: SR
HOP-92 = system: HOP-92
MOLT-4 = system: MOLT-4
SN12C = system: SN12C
OVCAR-4 = system: OVCAR-4
NCI-H522 = system: NCI-H522
SNB-75 = system: SNB-75
IGROV-1 = system: IGROV-1
ACHN = system: ACHN
SF-295 = system: SF-295
HT-29 = system: HT-29
EKVX = system: EKVX
OVCAR-8 = system: OVCAR-8
HOP-62 = system: HOP-62
LOX IMVI = system: LOX IMVI
TK-10 = system: TK-10
SK-MEL-28 = system: SK-MEL-28
CCRF-CEM = system: CCRF-CEM
UO-31 = system: UO-31

## CC/N=C(\N)CSS(=O)(=O)O
SR
  GI50: 36.5 µM (inactive)
HOP-92
  GI50: > 100 µM (inactive)
MOLT-4
  GI50: 34.6 µM (inactive)
SN12C
  GI50: > 100 µM (inactive)
OVCAR-4
  GI50: > 100 µM (inactive)
NCI-H522
  GI50: > 100 µM (inactive)
SNB-75
  GI50: > 100 µM (inactive)
IGROV-1
  GI50: > 100 µM (inactive)
ACHN
  GI50: > 100 µM (inactive)
SF-295
  GI50: > 100 µM (inactive)
HT-29
  GI50: > 100 µM (inactive)
EKVX
  GI50: > 100 µM (inactive)
OVCAR-8
  GI50: > 100 µM (inactive)
HOP-62
  GI50: > 100 µM (inactive)
LOX IMVI
  GI50: 38.3 µM (inactive)
TK-10
  GI50: > 100 µM (inactive)
SK-MEL-28
  GI50: > 100 µM (inactive)
CCRF-CEM
  GI50: > 100 µM (inactive)

## Oc1cccc(-c2nc3ccccc3s2)c1
SR
  GI50: 29.2 µM (inactive)
HOP-92
  GI50: 25.5 µM (inactive)
MOLT-4
  GI50: 24.2 µM (inactive)
SN12C
  GI50: 33.8 µM (inactive)
OVCAR-4
  GI50: 19.1 µM (inactive)
NCI-H522
  GI50: 17.6 µM (inactive)
SNB-75
  GI50: 19 µM (inactive)
IGROV-1
  GI50: 5.02 µM (inactive)
ACHN
  GI50: 41 µM (inactive)
SF-295
  GI50: 26.7 µM (inactive)
HT-29
  GI50: 18.8 µM (inactive)
EKVX
  GI50: 5.69 µM (inactive)
UO-31
  GI50: 26.1 µM (inactive)
OVCAR-8
  GI50: 27.2 µM (inactive)
HOP-62
  GI50: 22.5 µM (inactive)
LOX IMVI
  GI50: 26.5 µM (inactive)
SK-MEL-28
  GI50: 74.6 µM (inactive)
CCRF-CEM
  GI50: 57 µM (inactive)

## CCNC(=S)N/N=C/c1ccccn1
SR
  GI50: > 100 µM (inactive)
MOLT-4
  GI50: 1.58 µM (inactive)
SN12C
  GI50: 4.97 µM (inactive)
OVCAR-4
  GI50: 1.29 µM (inactive)
NCI-H522
  GI50: 0.579 µM (active)
SNB-75
  GI50: 62.2 µM (inactive)
IGROV-1
  GI50: 5.11 µM (inactive)
ACHN
  GI50: 5.69 µM (inactive)
SF-295
  GI50: 7.14 µM (inactive)
HT-29
  GI50: 4.47 µM (inactive)
EKVX
  GI50: 4.54 µM (inactive)
UO-31
  GI50: 2.44 µM (inactive)
OVCAR-8
  GI50: 3.3 µM (inactive)
HOP-62
  GI50: 6.12 µM (inactive)
LOX IMVI
  GI50: 7.18 µM (inactive)
TK-10
  GI50: 25.2 µM (inactive)
SK-MEL-28
  GI50: 16.7 µM (inactive)
CCRF-CEM
  GI50: 0.957 µM (active)

## CN(CC(=O)O)c1ncc2c(n1)-c1ccccc1OC2c1ccccc1 (stereo not given)
SR
  GI50: 37 µM (inactive)
HOP-92
  GI50: > 100 µM (inactive)
MOLT-4
  GI50: 29.2 µM (inactive)
SN12C
  GI50: > 100 µM (inactive)
OVCAR-4
  GI50: > 100 µM (inactive)
NCI-H522
  GI50: > 100 µM (inactive)
SNB-75
  GI50: 43.6 µM (inactive)
IGROV-1
  GI50: > 100 µM (inactive)
ACHN
  GI50: > 100 µM (inactive)
SF-295
  GI50: > 100 µM (inactive)
HT-29
  GI50: > 100 µM (inactive)
EKVX
  GI50: > 100 µM (inactive)
UO-31
  GI50: 38 µM (inactive)
OVCAR-8
  GI50: > 100 µM (inactive)
HOP-62
  GI50: > 100 µM (inactive)
LOX IMVI
  GI50: > 100 µM (inactive)
TK-10
  GI50: > 100 µM (inactive)
SK-MEL-28
  GI50: > 100 µM (inactive)
CCRF-CEM
  GI50: 44.3 µM (inactive)

## N=C(N)NCC(N)C(=O)O (stereo not given)
SR
  GI50: > 100 µM (inactive)
HOP-92
  GI50: > 100 µM (inactive)
SN12C
  GI50: > 100 µM (inactive)
OVCAR-4
  GI50: > 100 µM (inactive)
NCI-H522
  GI50: > 100 µM (inactive)
SNB-75
  GI50: > 100 µM (inactive)
IGROV-1
  GI50: > 100 µM (inactive)
ACHN
  GI50: > 100 µM (inactive)
SF-295
  GI50: > 100 µM (inactive)
HT-29
  GI50: > 100 µM (inactive)
EKVX
  GI50: > 100 µM (inactive)
UO-31
  GI50: > 100 µM (inactive)
OVCAR-8
  GI50: > 100 µM (inactive)
HOP-62
  GI50: > 100 µM (inactive)
LOX IMVI
  GI50: > 100 µM (inactive)
TK-10
  GI50: > 100 µM (inactive)
SK-MEL-28
  GI50: > 100 µM (inactive)

## CC(C)[C@H]1CO[C@@H]2O[C@H](C)CC(=O)N21
SR
  GI50: > 100 µM (inactive)
HOP-92
  GI50: > 100 µM (inactive)
MOLT-4
  GI50: > 100 µM (inactive)
SN12C
  GI50: > 100 µM (inactive)
OVCAR-4
  GI50: > 100 µM (inactive)
NCI-H522
  GI50: > 100 µM (inactive)
SNB-75
  GI50: > 100 µM (inactive)
IGROV-1
  GI50: > 100 µM (inactive)
ACHN
  GI50: > 100 µM (inactive)
SF-295
  GI50: > 100 µM (inactive)
HT-29
  GI50: > 100 µM (inactive)
EKVX
  GI50: > 100 µM (inactive)
UO-31
  GI50: > 100 µM (inactive)
OVCAR-8
  GI50: > 100 µM (inactive)
HOP-62
  GI50: > 100 µM (inactive)
TK-10
  GI50: > 100 µM (inactive)
SK-MEL-28
  GI50: > 100 µM (inactive)
CCRF-CEM
  GI50: > 100 µM (inactive)

## COc1ccc(CC2COc3cc(O)cc(O)c3C2=O)cc1O (stereo not given)
SR
  GI50: 1.03 µM (active)
HOP-92
  GI50: 22.3 µM (inactive)
MOLT-4
  GI50: 4.3 µM (inactive)
SN12C
  GI50: 8.34 µM (inactive)
OVCAR-4
  GI50: 11.8 µM (inactive)
NCI-H522
  GI50: 4.7 µM (inactive)
SNB-75
  GI50: 1.37 µM (inactive)
IGROV-1
  GI50: 4.23 µM (inactive)
ACHN
  GI50: 24.4 µM (inactive)
SF-295
  GI50: 4.3 µM (inactive)
HT-29
  GI50: 13.6 µM (inactive)
EKVX
  GI50: > 100 µM (inactive)
UO-31
  GI50: 17 µM (inactive)
OVCAR-8
  GI50: 11.9 µM (inactive)
HOP-62
  GI50: 5.13 µM (inactive)
LOX IMVI
  GI50: 8.83 µM (inactive)
TK-10
  GI50: 15.4 µM (inactive)
SK-MEL-28
  GI50: 3.75 µM (inactive)
CCRF-CEM
  GI50: 3.4 µM (inactive)

## Cn1c(=O)c2[nH]c(/N=N/N3CCN(CCO)CC3)nc2n(C)c1=O
SR
  GI50: > 100 µM (inactive)
HOP-92
  GI50: > 100 µM (inactive)
MOLT-4
  GI50: > 100 µM (inactive)
SN12C
  GI50: > 100 µM (inactive)
OVCAR-4
  GI50: > 100 µM (inactive)
NCI-H522
  GI50: > 100 µM (inactive)
IGROV-1
  GI50: > 100 µM (inactive)
ACHN
  GI50: > 100 µM (inactive)
SF-295
  GI50: > 100 µM (inactive)
HT-29
  GI50: > 100 µM (inactive)
EKVX
  GI50: > 100 µM (inactive)
UO-31
  GI50: > 100 µM (inactive)
OVCAR-8
  GI50: > 100 µM (inactive)
HOP-62
  GI50: > 100 µM (inactive)
LOX IMVI
  GI50: > 100 µM (inactive)
TK-10
  GI50: > 100 µM (inactive)
SK-MEL-28
  GI50: > 100 µM (inactive)
CCRF-CEM
  GI50: > 100 µM (inactive)

Reference: ChEMBL document CHEMBL1201862, “PubChem BioAssay data set” (2004)
